Reference: the NIST ThermoML archive (doi:10.1021/je900722m)

Assay: xn = mol fraction of the nth substance listed
Conditions: 101 kPa, Liquid

CC(C)(C)O [2-methylpropan-2-ol] + CCCCO
Conditions	mass density [kg/m3]	viscosity [mPa·s]
308.15 K, x2 = 0.1017	774.752	3.438
308.15 K, x2 = 0.2006	778.293	3.374
308.15 K, x2 = 0.3008	781.316	3.302
308.15 K, x2 = 0.4005	784.068	3.22
308.15 K, x2 = 0.5011	786.651	3.125
308.15 K, x2 = 0.6002	789.119	3.021
308.15 K, x2 = 0.6975	791.52	2.912
308.15 K, x2 = 0.7987	793.957	2.791
308.15 K, x2 = 0.8978	796.247	2.667
313.15 K, x2 = 0.1017	769.698	2.787
313.15 K, x2 = 0.2006	773.439	2.763
313.15 K, x2 = 0.3008	776.66	2.733
313.15 K, x2 = 0.4005	779.566	2.693
313.15 K, x2 = 0.5011	782.289	2.64
313.15 K, x2 = 0.6002	784.884	2.577
313.15 K, x2 = 0.6975	787.385	2.508
313.15 K, x2 = 0.7987	789.899	2.429
313.15 K, x2 = 0.8978	792.264	2.347
318.15 K, x2 = 0.1017	764.541	2.299
318.15 K, x2 = 0.2006	768.484	2.302
318.15 K, x2 = 0.3008	771.902	2.298
318.15 K, x2 = 0.4005	774.974	2.284
318.15 K, x2 = 0.5011	777.844	2.258
318.15 K, x2 = 0.6002	780.565	2.223
318.15 K, x2 = 0.6975	783.18	2.182
318.15 K, x2 = 0.7987	785.795	2.131
318.15 K, x2 = 0.8978	788.241	2.076
323.15 K, x2 = 0.1017	759.283	1.922
323.15 K, x2 = 0.2006	763.421	1.942
323.15 K, x2 = 0.3008	767.037	1.956
323.15 K, x2 = 0.4005	770.272	1.957
323.15 K, x2 = 0.5011	773.307	1.95
323.15 K, x2 = 0.6002	776.162	1.934
323.15 K, x2 = 0.6975	778.901	1.91
323.15 K, x2 = 0.7987	781.617	1.877
323.15 K, x2 = 0.8978	784.158	1.841
328.15 K, x2 = 0.1017	753.923	1.635
328.15 K, x2 = 0.2006	758.252	1.666
328.15 K, x2 = 0.3008	762.068	1.69
328.15 K, x2 = 0.4005	765.483	1.704
328.15 K, x2 = 0.5011	768.677	1.709
328.15 K, x2 = 0.6002	771.695	1.704
328.15 K, x2 = 0.6975	774.542	1.692
328.15 K, x2 = 0.7987	777.372	1.672
328.15 K, x2 = 0.8978	780.002	1.65
333.15 K, x2 = 0.1017	748.453	1.406
333.15 K, x2 = 0.2006	752.974	1.439
333.15 K, x2 = 0.3008	756.986	1.466
333.15 K, x2 = 0.4005	760.579	1.486
333.15 K, x2 = 0.5011	763.946	1.5
333.15 K, x2 = 0.6002	767.111	1.504
333.15 K, x2 = 0.6975	770.1	1.501
333.15 K, x2 = 0.7987	773.05	1.492
333.15 K, x2 = 0.8978	775.796	1.478
338.15 K, x2 = 0.1017	742.882	1.221
338.15 K, x2 = 0.2006	747.587	1.254
338.15 K, x2 = 0.3008	751.795	1.282
338.15 K, x2 = 0.4005	755.568	1.306
338.15 K, x2 = 0.5011	759.113	1.324
338.15 K, x2 = 0.6002	762.433	1.335
338.15 K, x2 = 0.6975	765.569	1.339
338.15 K, x2 = 0.7987	768.651	1.34
338.15 K, x2 = 0.8978	771.52	1.335
343.15 K, x2 = 0.1017	737.201	1.07
343.15 K, x2 = 0.2006	742.083	1.103
343.15 K, x2 = 0.3008	746.492	1.131
343.15 K, x2 = 0.4005	750.446	1.156
343.15 K, x2 = 0.5011	754.166	1.177
343.15 K, x2 = 0.6002	757.655	1.191
343.15 K, x2 = 0.6975	760.941	1.2
343.15 K, x2 = 0.7987	764.169	1.207
343.15 K, x2 = 0.8978	767.155	1.208

CCC(C)O (stereo unspecified) [butan-2-ol] + CCCCO
Conditions	mass density [kg/m3]	viscosity [mPa·s]
303.15 K, x2 = 0.1008	798.816	3.157
303.15 K, x2 = 0.2005	799.24	3.08
303.15 K, x2 = 0.3002	799.646	3.027
303.15 K, x2 = 0.4006	800.045	2.987
303.15 K, x2 = 0.5004	800.435	2.956
303.15 K, x2 = 0.6005	800.827	2.932
303.15 K, x2 = 0.6999	801.204	2.912
303.15 K, x2 = 0.7989	801.568	2.894
303.15 K, x2 = 0.8988	801.909	2.875
308.15 K, x2 = 0.1008	794.588	2.679
308.15 K, x2 = 0.2005	795.059	2.65
308.15 K, x2 = 0.3002	795.516	2.626
308.15 K, x2 = 0.4006	795.957	2.609
308.15 K, x2 = 0.5004	796.396	2.595
308.15 K, x2 = 0.6005	796.828	2.583
308.15 K, x2 = 0.6999	797.242	2.57
308.15 K, x2 = 0.7989	797.635	2.557
308.15 K, x2 = 0.8988	798.014	2.545
313.15 K, x2 = 0.1008	790.266	2.312
313.15 K, x2 = 0.2005	790.801	2.299
313.15 K, x2 = 0.3002	791.313	2.288
313.15 K, x2 = 0.4006	791.795	2.283
313.15 K, x2 = 0.5004	792.279	2.278
313.15 K, x2 = 0.6005	792.762	2.275
313.15 K, x2 = 0.6999	793.224	2.272
313.15 K, x2 = 0.7989	793.655	2.268
313.15 K, x2 = 0.8988	794.069	2.264
318.15 K, x2 = 0.1008	785.851	1.982
318.15 K, x2 = 0.2005	786.455	1.981
318.15 K, x2 = 0.3002	787.036	1.981
318.15 K, x2 = 0.4006	787.575	1.982
318.15 K, x2 = 0.5004	788.113	1.986
318.15 K, x2 = 0.6005	788.64	1.992
318.15 K, x2 = 0.6999	789.157	1.999
318.15 K, x2 = 0.7989	789.625	2.007
318.15 K, x2 = 0.8988	790.08	2.013
323.15 K, x2 = 0.1008	781.329	1.723
323.15 K, x2 = 0.2005	782.01	1.737
323.15 K, x2 = 0.3002	782.667	1.75
323.15 K, x2 = 0.4006	783.274	1.763
323.15 K, x2 = 0.5004	783.873	1.773
323.15 K, x2 = 0.6005	784.456	1.782
323.15 K, x2 = 0.6999	785.021	1.79
323.15 K, x2 = 0.7989	785.535	1.795
323.15 K, x2 = 0.8988	786.04	1.798
328.15 K, x2 = 0.1008	776.706	1.506
328.15 K, x2 = 0.2005	777.468	1.525
328.15 K, x2 = 0.3002	778.208	1.543
328.15 K, x2 = 0.4006	778.887	1.56
328.15 K, x2 = 0.5004	779.553	1.576
328.15 K, x2 = 0.6005	780.198	1.59
328.15 K, x2 = 0.6999	780.817	1.602
328.15 K, x2 = 0.7989	781.386	1.612
328.15 K, x2 = 0.8988	781.936	1.621
333.15 K, x2 = 0.1008	771.968	1.327
333.15 K, x2 = 0.2005	772.822	1.349
333.15 K, x2 = 0.3002	773.649	1.369
333.15 K, x2 = 0.4006	774.407	1.387
333.15 K, x2 = 0.5004	775.144	1.405
333.15 K, x2 = 0.6005	775.861	1.421
333.15 K, x2 = 0.6999	776.534	1.434
333.15 K, x2 = 0.7989	777.165	1.447
333.15 K, x2 = 0.8988	777.765	1.457
338.15 K, x2 = 0.1008	767.116	1.178
338.15 K, x2 = 0.2005	768.057	1.201
338.15 K, x2 = 0.3002	768.985	1.224
338.15 K, x2 = 0.4006	769.83	1.242
338.15 K, x2 = 0.5004	770.644	1.258
338.15 K, x2 = 0.6005	771.436	1.275
338.15 K, x2 = 0.6999	772.174	1.29
338.15 K, x2 = 0.7989	772.85	1.302
338.15 K, x2 = 0.8988	773.53	1.315
343.15 K, x2 = 0.1008	762.161	1.055
343.15 K, x2 = 0.2005	763.194	1.08
343.15 K, x2 = 0.3002	764.213	1.102
343.15 K, x2 = 0.4006	765.15	1.121
343.15 K, x2 = 0.5004	766.048	1.138
343.15 K, x2 = 0.6005	766.918	1.155
343.15 K, x2 = 0.6999	767.729	1.171
343.15 K, x2 = 0.7989	768.484	1.184
343.15 K, x2 = 0.8988	769.214	1.197
